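Interpolation was linear, between the two tested concentrations surrounding the appropriate level; five concentrations were tested over 48 hours in 96-well plates. TGI: concentration producing complete growth inhibition.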
Assays:
Test in all cases: NCI tumour cell line growth inhibition, 48 h
LOX IMVI melanoma = test system: LOX IMVI melanoma
ACHN renal = test system: ACHN renal
HCT-116 colon = test system: HCT-116 colon
SK-MEL-28 melanoma = test system: SK-MEL-28 melanoma
NCI/ADR-RES ovarian = test system: NCI/ADR-RES ovarian
HCT-15 colon = test system: HCT-15 colon
786-0 renal = test system: 786-0 renal
KM12 colon = test system: KM12 colon
PC-3 prostate = test system: PC-3 prostate
T-47D breast = test system: T-47D breast

## O=Cc1ccc(OC[C@H]2COC(=O)N2)cc1
LOX IMVI melanoma
  TGI: > 100 µM
ACHN renal
  TGI: > 100 µM
HCT-116 colon
  TGI: > 100 µM
SK-MEL-28 melanoma
  TGI: > 100 µM
NCI/ADR-RES ovarian
  TGI: > 100 µM
HCT-15 colon
  TGI: > 100 µM
786-0 renal
  TGI: > 100 µM
KM12 colon
  TGI: > 100 µM
PC-3 prostate
  TGI: > 100 µM
T-47D breast
  TGI: > 100 µM

## O=C(Cn1cc(Br)c(=O)[nH]c1=O)c1ccc(-c2ccccc2)cc1
LOX IMVI melanoma
  TGI: > 27.4 µM
ACHN renal
  TGI: > 100 µM
HCT-116 colon
  TGI: > 100 µM
SK-MEL-28 melanoma
  TGI: > 19.9 µM
NCI/ADR-RES ovarian
  TGI: > 100 µM
HCT-15 colon
  TGI: 39.7 µM
786-0 renal
  TGI: > 100 µM
KM12 colon
  TGI: > 26.3 µM
PC-3 prostate
  TGI: > 45.9 µM
T-47D breast
  TGI: > 100 µM

## Cn1c(=Nc2ccc(Cl)cc2)sc2ccccc21
LOX IMVI melanoma
  TGI: > 100 µM
ACHN renal
  TGI: > 100 µM
HCT-116 colon
  TGI: > 100 µM
SK-MEL-28 melanoma
  TGI: > 100 µM
NCI/ADR-RES ovarian
  TGI: > 100 µM
HCT-15 colon
  TGI: 65.7 µM
786-0 renal
  TGI: > 100 µM
KM12 colon
  TGI: > 100 µM
PC-3 prostate
  TGI: > 100 µM
T-47D breast
  TGI: > 100 µM

## CC1CN=C(Nc2cccc(F)c2)S1 (stereo not given)
LOX IMVI melanoma
  TGI: > 100 µM
ACHN renal
  TGI: > 100 µM
HCT-116 colon
  TGI: > 100 µM
SK-MEL-28 melanoma
  TGI: > 100 µM
NCI/ADR-RES ovarian
  TGI: > 100 µM
HCT-15 colon
  TGI: > 100 µM
786-0 renal
  TGI: > 100 µM
KM12 colon
  TGI: > 100 µM
PC-3 prostate
  TGI: > 100 µM
T-47D breast
  TGI: > 100 µM

## Cc1ccc(-c2c(-c3ccccc3)[nH]c(C)c2C(=O)ONC(=O)c2ccccc2)cc1
LOX IMVI melanoma
  TGI: 4.45 µM
ACHN renal
  TGI: 4.15 µM
HCT-116 colon
  TGI: 7.27 µM
SK-MEL-28 melanoma
  TGI: 27.1 µM
NCI/ADR-RES ovarian
  TGI: 18.3 µM
HCT-15 colon
  TGI: 24.1 µM
786-0 renal
  TGI: 12.6 µM
KM12 colon
  TGI: 26.4 µM
PC-3 prostate
  TGI: 18.7 µM
T-47D breast
  TGI: 19.9 µM

## COc1cc(/C=C2\C[C@H]3[C@@H]4CCC5=CC(=O)CC[C@]5(C)[C@H]4CC[C@]3(C)C2=O)cc(OC)c1OC
LOX IMVI melanoma
  TGI: > 100 µM
ACHN renal
  TGI: > 100 µM
HCT-116 colon
  TGI: > 40.8 µM
SK-MEL-28 melanoma
  TGI: > 100 µM
NCI/ADR-RES ovarian
  TGI: > 100 µM
HCT-15 colon
  TGI: > 100 µM
786-0 renal
  TGI: > 100 µM
KM12 colon
  TGI: > 37.2 µM
PC-3 prostate
  TGI: > 43.2 µM
T-47D breast
  TGI: 9.09 µM

## N#CC1=C(N)N(/N=C/c2ccccc2)C(c2ccccc2)C1(C#N)C#N (stereo not given)
LOX IMVI melanoma
  TGI: 14.6 µM
ACHN renal
  TGI: 14.9 µM
HCT-116 colon
  TGI: 8.13 µM
SK-MEL-28 melanoma
  TGI: 9.91 µM
NCI/ADR-RES ovarian
  TGI: 54.2 µM
HCT-15 colon
  TGI: 18.7 µM
786-0 renal
  TGI: 16.1 µM
KM12 colon
  TGI: > 58.2 µM
PC-3 prostate
  TGI: 34.5 µM
T-47D breast
  TGI: 24.4 µM

## Cc1cccc2oc3c(c(=O)c12)CC(O)C(C)(C)O3 (stereo not given)
LOX IMVI melanoma
  TGI: > 100 µM
ACHN renal
  TGI: > 100 µM
HCT-116 colon
  TGI: > 100 µM
SK-MEL-28 melanoma
  TGI: > 100 µM
NCI/ADR-RES ovarian
  TGI: > 100 µM
HCT-15 colon
  TGI: > 100 µM
786-0 renal
  TGI: > 100 µM
KM12 colon
  TGI: > 100 µM
PC-3 prostate
  TGI: > 100 µM
T-47D breast
  TGI: > 100 µM

## O=C(c1cccs1)c1nccc2c1cnc1ccccc12
LOX IMVI melanoma
  TGI: > 100 µM
ACHN renal
  TGI: > 100 µM
HCT-116 colon
  TGI: > 100 µM
SK-MEL-28 melanoma
  TGI: > 100 µM
NCI/ADR-RES ovarian
  TGI: > 100 µM
HCT-15 colon
  TGI: > 100 µM
786-0 renal
  TGI: > 100 µM
KM12 colon
  TGI: > 100 µM
PC-3 prostate
  TGI: > 100 µM
T-47D breast
  TGI: > 100 µM

## C[C@H]1C2Cc3cc(O)ccc3[C@@]1(C)CCN2CCc1ccc(N)cc1
LOX IMVI melanoma
  TGI: 28.2 µM
ACHN renal
  TGI: > 100 µM
HCT-116 colon
  TGI: 31.2 µM
SK-MEL-28 melanoma
  TGI: 34.4 µM
NCI/ADR-RES ovarian
  TGI: 63.2 µM
HCT-15 colon
  TGI: 33.3 µM
786-0 renal
  TGI: 30.7 µM
KM12 colon
  TGI: 34.3 µM
PC-3 prostate
  TGI: 34.8 µM
T-47D breast
  TGI: > 100 µM

## COc1ccc2oc(S(=O)(=O)N3CC(CCl)c4ccc(N)cc43)cc2c1 (stereo not given)
LOX IMVI melanoma
  TGI: > 53.1 µM
ACHN renal
  TGI: > 94.6 µM
HCT-116 colon
  TGI: > 8.26 µM
SK-MEL-28 melanoma
  TGI: > 100 µM
NCI/ADR-RES ovarian
  TGI: > 72 µM
HCT-15 colon
  TGI: > 23.9 µM
786-0 renal
  TGI: > 10.6 µM
KM12 colon
  TGI: 6.02 µM
PC-3 prostate
  TGI: > 100 µM
T-47D breast
  TGI: > 100 µM

## N#[N+]c1c([O-])c2ccccc2c2ccccc12
LOX IMVI melanoma
  TGI: 86 µM
ACHN renal
  TGI: > 100 µM
HCT-116 colon
  TGI: > 100 µM
SK-MEL-28 melanoma
  TGI: > 100 µM
NCI/ADR-RES ovarian
  TGI: > 100 µM
HCT-15 colon
  TGI: > 100 µM
786-0 renal
  TGI: > 100 µM
KM12 colon
  TGI: > 100 µM
PC-3 prostate
  TGI: > 100 µM
T-47D breast
  TGI: > 100 µM

## COC(=O)c1c(CC(Cc2ccc3c(c2)CCCC3)C(=O)O)ccc2c1CCCC2 (stereo not given)
LOX IMVI melanoma
  TGI: 31.4 µM
ACHN renal
  TGI: > 100 µM
HCT-116 colon
  TGI: 33.1 µM
SK-MEL-28 melanoma
  TGI: > 100 µM
NCI/ADR-RES ovarian
  TGI: 34.4 µM
HCT-15 colon
  TGI: 33.8 µM
786-0 renal
  TGI: > 100 µM
KM12 colon
  TGI: 77.2 µM
PC-3 prostate
  TGI: > 100 µM
T-47D breast
  TGI: > 100 µM

## Cc1ccc2nc3n[nH]c(N)c3nc2c1
LOX IMVI melanoma
  TGI: > 100 µM
ACHN renal
  TGI: > 100 µM
HCT-116 colon
  TGI: > 100 µM
SK-MEL-28 melanoma
  TGI: > 100 µM
NCI/ADR-RES ovarian
  TGI: > 100 µM
HCT-15 colon
  TGI: > 100 µM
786-0 renal
  TGI: > 100 µM
KM12 colon
  TGI: > 100 µM
PC-3 prostate
  TGI: > 100 µM
T-47D breast
  TGI: > 100 µM

## CC1(C)CC(=O)c2c(nc3c(ccc4ccccc43)c2-c2ccc(NC(=O)CCC(=O)Nc3ccc(-c4c5c(nc6c4ccc4ccccc46)CC(C)(C)CC5=O)cc3)cc2)C1
LOX IMVI melanoma
  TGI: > 100 µM
ACHN renal
  TGI: > 100 µM
HCT-116 colon
  TGI: > 100 µM
SK-MEL-28 melanoma
  TGI: > 100 µM
NCI/ADR-RES ovarian
  TGI: > 100 µM
HCT-15 colon
  TGI: > 100 µM
786-0 renal
  TGI: > 100 µM
KM12 colon
  TGI: > 100 µM
PC-3 prostate
  TGI: > 100 µM
T-47D breast
  TGI: > 100 µM

## C=C1C[C@@H](O)[C@@H](Br)C(C)(C)[C@@]12C=CC(=O)CC2
LOX IMVI melanoma
  TGI: > 100 µM
ACHN renal
  TGI: > 100 µM
HCT-116 colon
  TGI: > 100 µM
SK-MEL-28 melanoma
  TGI: > 100 µM
NCI/ADR-RES ovarian
  TGI: > 100 µM
HCT-15 colon
  TGI: > 100 µM
786-0 renal
  TGI: > 100 µM
KM12 colon
  TGI: 5.31 µM
PC-3 prostate
  TGI: 7.97 µM
T-47D breast
  TGI: > 100 µM

## COc1ccc(-c2c(-c3ccc(OC)cc3)n3c(=O)n(C)c(=O)n23)cc1
LOX IMVI melanoma
  TGI: > 100 µM
ACHN renal
  TGI: > 100 µM
HCT-116 colon
  TGI: > 100 µM
SK-MEL-28 melanoma
  TGI: > 100 µM
NCI/ADR-RES ovarian
  TGI: 89.9 µM
HCT-15 colon
  TGI: > 100 µM
786-0 renal
  TGI: > 100 µM
KM12 colon
  TGI: > 100 µM
PC-3 prostate
  TGI: > 100 µM
T-47D breast
  TGI: 57.1 µM

## Cc1ccc(S(=O)C[C@](NC(=O)OCc2ccccc2)(Sc2ccccc2)C(F)F)cc1 (stereo not given in full)
LOX IMVI melanoma
  TGI: 19.4 µM
ACHN renal
  TGI: 45.5 µM
HCT-116 colon
  TGI: 34.8 µM
SK-MEL-28 melanoma
  TGI: 38.1 µM
NCI/ADR-RES ovarian
  TGI: 54.6 µM
HCT-15 colon
  TGI: 40.3 µM
786-0 renal
  TGI: 29.2 µM
KM12 colon
  TGI: 31.9 µM
PC-3 prostate
  TGI: 74.2 µM
T-47D breast
  TGI: 40 µM

## Clc1ccc(-c2cc(-c3cc4cc(Br)ccc4nc3Cl)on2)cc1
LOX IMVI melanoma
  TGI: 21.4 µM
ACHN renal
  TGI: > 50 µM
HCT-116 colon
  TGI: 30.7 µM
SK-MEL-28 melanoma
  TGI: 29.3 µM
NCI/ADR-RES ovarian
  TGI: 37.9 µM
HCT-15 colon
  TGI: > 50 µM
786-0 renal
  TGI: > 50 µM
KM12 colon
  TGI: > 50 µM
PC-3 prostate
  TGI: > 50 µM
T-47D breast
  TGI: > 50 µM

## O=C1/C(=C\c2ccc(Br)cc2)CCCc2ccccc21
LOX IMVI melanoma
  TGI: 29.9 µM
ACHN renal
  TGI: 30.6 µM
HCT-116 colon
  TGI: 24.8 µM
SK-MEL-28 melanoma
  TGI: 40.9 µM
NCI/ADR-RES ovarian
  TGI: 27.2 µM
HCT-15 colon
  TGI: 24.8 µM
786-0 renal
  TGI: 27.8 µM
KM12 colon
  TGI: 29 µM
PC-3 prostate
  TGI: 55.4 µM
T-47D breast
  TGI: 50.6 µM

## Nc1nccc(NCC2(CO)CC(OCc3ccccc3)C2)n1 (stereo not given)
LOX IMVI melanoma
  TGI: > 100 µM
ACHN renal
  TGI: > 100 µM
HCT-116 colon
  TGI: > 100 µM
SK-MEL-28 melanoma
  TGI: > 100 µM
NCI/ADR-RES ovarian
  TGI: > 100 µM
HCT-15 colon
  TGI: > 100 µM
786-0 renal
  TGI: > 100 µM
KM12 colon
  TGI: > 100 µM
PC-3 prostate
  TGI: > 100 µM
T-47D breast
  TGI: 36.2 µM

Reference: PubChem BioAssay (NCI)
